Laboratory results taken from patent US12521335B2, “Cosmetic compositions containing vitamin C compounds and uses thereof” (RoC OPCO LLC, priority 2021, dated 2026).

Assay: DPPH antioxidant assay
Type: biochemical
Settings: for DPPH antioxidant activity percent, Avg ± SEM: from 0.1% v/v stock
From the text: The purpose of this study was to evaluate the overall antioxidant capacity of the serum formula of Example 1B and gel-cream formula of Example 1C for their ability to reduce the free radical 2,2-Diphenyl-1-picrylhydrazyl ([…] and Singh (2011). Genesis and development of DPPH method of antioxidant assay. (See J. Food Sci Technol. 2011 August; 48(4): 412-422.) Ascorbic Acid (Vitamin C) was used as positive antioxidant control in the assay. The testing involved the suppression of optical density (OD) at 530 nm to a degree, which is proportional to an effective antioxidant activity. Test and control agents were stored at recommended storage temperature until use. An initial 0.1, 1 or 10% v/v dilution was prepared for each test formula in ultra-pure grade water or […]® 355. Serial 2-fold dilutions were prepared for each material and mixed with DPPH in ethanol solution. All samples were compared to diluent-only treated samples used as negative antioxidant activity. Optical density changes at 530 nm were evaluated 10 minutes after addition of DPPH to each sample. Average absorbance was calculated and plotted for each sample concentration. Effective antioxidant inhibition activity based on the change of absorbance of blank (diluent-only) sample (no material added). […] The DPPH antioxidant assay method was performed to measure antioxidant capacity of test materials. The free radical, 2,2-Diphenyl-1-picrylhydrazyl (DPPH) was obtained from Cayman Chemical Co. (Cat. No. 14805) and a 0.2 mM (0.0788 mg/mL) solution was prepared with 200-proof ethanol (Acros Organics, Cat No. 61509-0020). The assay consisted in the evaluation of the overall antioxidant capacity of test materials ([…] and Singh, 2011) for the ability to reduce DPPH (purple color), a stable free radical to DPPHH (Diphenylpicrylhydrazine; light yellow color). The testing involved the suppression of optical density (OD) at 517-530 nm to a degree which is proportional to an effective antioxidant activity. The antioxidant capacity of each material was compared to ascorbic acid (vitamin C) used as standard control. An initial 0.1, 1 or 10% v/v dilution was prepared for each test formula in ultra-pure grade water or […]® 355. Two-fold serial dilutions were made from the stock solution samples. Negative control wells only diluent was added. The vehicle/diluent used was ultra-pure grade water (Cayman Chemical, Co.; Cat No. 400000) or […] Corp.; Lot No. 170310UT14). Diluents were stored at room temperature and handled by the research scientist. To prepare the serum stock formulation (0.1, 1, 10% v/v), 1:10, 1:100 or 1:1000 dilutions were prepared using a positive displacement pipette. To prepare the 20% Ascorbic Acid and 0.05% stock formulation, a 1-dram glass screw-top vial container was pre-weighed and material added to the container followed by addition of neat vehicle to make a 200 mg/mL or […] solution, respectively. Two-fold serial dilutions were made from the stock solution samples. […] Vials were sealed and formulations were immediately used for antioxidant assays.

[1] = DPPH antioxidant activity near 100%

O=C1O[C@H]([C@@H](O)CO)C(O)=C1O [20% Ascorbic Acid, Ascorbic Acid]
DPPH antioxidant activity percent, Avg ± SEM (0.001 % v/v): 38 ± 8% | DPPH antioxidant activity percent, Avg ± SEM (0.002 % v/v): 31 ± 11% | DPPH antioxidant activity percent, Avg ± SEM (0.003 % v/v): 50 ± 13% | DPPH antioxidant activity percent, Avg ± SEM (0.006 % v/v): 91 ± 4% | DPPH antioxidant activity percent, Avg ± SEM (0.013 % v/v): 100 ± 0% | DPPH antioxidant activity percent, Avg ± SEM (0.025 % v/v): 100 ± 0% | DPPH antioxidant activity percent, Avg ± SEM (0.050 % v/v): 100 ± 0% | Maximum effective Antioxidant Activity: Concentration (% v/v) [1]: 0.0125 % v/v | Maximum effective Antioxidant Activity: Dilution Factor [1]: 8,000
